Literature values as cited in patent EP1939174A1, “Inclusion complex of ezetimibe and a cyclodextrin and processes in the preparation thereof” (LEK Pharmaceuticals d.d., priority 2006, dated 2008).

solubility in alcohols and acetone (in alcohols and acetone): freely soluble
solubility in water (in water): practically insoluble
SMILES: O=C1[C@H](CC[C@H](O)c2ccc(F)cc2)[C@@H](c2ccc(O)cc2)N1c1ccc(F)cc1 [Ezetimibe, 1-4(fluorophenyl)-3-(R)-[3-(4-fluorophenyl)-3-(S)-hydroxypropyl]-4-(S)-(4-hydroxyphenyl)-2-azetidinone]
